From patent US11357774B2, “Use of a quinoline sulfonyl compound for treatment of inflammation, inflammatory disorders, autoimmune disorders and malaria” (priority 2019, dated 2022) come the findings set out here.

Structures are written as SMILES.

In the data set the test system is THP-1 cells. Put plainly: CCK-8 cell viability, THP-1 cells. It is filed as cell-based. The settings on record: THP-1, 6 hours with LPS 5 μg/mL or TNF-α 10 ng/mL; VR23 3 μM, BTZ 6 nM, CFZ 1 nM, DEX 2 μM. How it is done:
Dunnett's test was performed to assess if there are significant differences in cell viability compared to the non-treatment control group. The values presented are mean±SEM (n=3).
The CCK-8 assay was used to count viable cells under the various treatment conditions. Briefly, cells were cultured in 11 columns of a 96-well clustered plate, with 5,000 cells in 100 μL of culture medium per well, excluding one column for a media-only control. The plate was incubated overnight at 37° C. in the humidified conditions, followed by treatment with test compounds diluted in the culture medium (10 μL). Each column was treated with a different condition so that each treatment could have 8 repeats. […] The absorbance was measured using an automatic plate reader (Synergy H4 Hybrid Multi-Mode Microplate Reader, BioTek, Montreal, Canada) at 450 nm wavelength. The cell viability of each treatment sample was determined by using the following equation (%)=(Abstrtmt-Absmedia)/(AbsuT-Absmedia)*100, where Abstrtmt is the absorbance value of cells with the various treatment conditions; Absmedia is the absorbance of the well containing media only; AbsuT is the absorbance of the wells with untreated cells. […]

With `O=[N+]([O-])c1ccc(S(=O)(=O)N2CCN(c3ccnc4cc(Cl)ccc34)CC2)c([N+](=O)[O-])c1` [VR23, 7-chloro-4-(4-(2,4-dinitrophenylsulfonyl)piperazin-1-yl)quinoline], the “cell viability (CCK-8)” value is on record as “did not significantly differ from the untreated cells”.
